Assay [1] concerns the target human A2A adenosine receptor (Homo sapiens (Human), UniProt P29274). Nature of the assay: A2A receptor affinity binding assay (radioligand filtration binding or SPA, [3H]SCH58261). Conditions: membranes from HEK293 or CHO cells expressing human A2A; Method (A) filtration or Method (B) SPA.
Assay [2] has as its target human A2B adenosine receptor (Homo sapiens (Human), UniProt P29275). As to the kind of experiment: A2B binding affinity radioligand filtration binding assay. To be noted: membranes from HEK293 cells expressing human A2B; tritiated proprietary A2B antagonist.

pIC50: −log10 of the molar value.

A word on the pIC50: it is the negative decadic logarithm of the IC50, by convention in mol/L. Lower therefore signals a high IC50.

human A2A adenosine receptor, sequence (P29274 whole entry): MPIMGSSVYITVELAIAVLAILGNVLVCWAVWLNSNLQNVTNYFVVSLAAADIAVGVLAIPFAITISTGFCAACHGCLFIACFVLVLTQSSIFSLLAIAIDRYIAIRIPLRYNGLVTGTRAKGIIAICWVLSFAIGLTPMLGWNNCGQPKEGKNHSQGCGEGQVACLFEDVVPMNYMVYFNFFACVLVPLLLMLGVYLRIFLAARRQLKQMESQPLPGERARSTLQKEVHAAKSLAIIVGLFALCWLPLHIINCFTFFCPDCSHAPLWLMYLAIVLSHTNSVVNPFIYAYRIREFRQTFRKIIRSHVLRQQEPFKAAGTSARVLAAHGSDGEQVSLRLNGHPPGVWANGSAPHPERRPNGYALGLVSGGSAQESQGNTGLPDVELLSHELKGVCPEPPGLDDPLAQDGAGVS
human A2B adenosine receptor, sequence (P29275 whole entry): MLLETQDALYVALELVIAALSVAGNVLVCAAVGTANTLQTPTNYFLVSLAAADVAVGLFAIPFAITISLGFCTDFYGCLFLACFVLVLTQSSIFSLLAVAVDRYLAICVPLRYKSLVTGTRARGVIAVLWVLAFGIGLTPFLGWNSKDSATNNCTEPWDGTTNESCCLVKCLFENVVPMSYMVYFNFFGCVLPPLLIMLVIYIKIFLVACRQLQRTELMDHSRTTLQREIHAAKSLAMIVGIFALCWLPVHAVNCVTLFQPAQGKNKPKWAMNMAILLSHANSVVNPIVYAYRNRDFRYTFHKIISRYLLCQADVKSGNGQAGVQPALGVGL

For `COc1cccc2c1nc(N)n1nc([C@H]3C[C@@H](c4cccc(C(C)(C)O)c4)C3)nc21` [Ex-47, 2-{3-[cis-3-(5-amino-7-methoxy [1,2,4]triazolo [1,5-c]quinazolin-2-yl)cyclobutyl]phenyl} propan-2-ol], the pIC50 in assay [1] was 8.01; in assay [2] it was 7.97.

With `COc1cccc2c1nc(N)n1nc(C3CC3c3ccc4c(c3)C(=O)NC4)nc21` (stereo not drawn) [Ex-6, 6-[2-(5-amino-7-methoxy[1,2,4]triazolo [1,5-c]quinazolin-2-yl)cyclopropyl]-2,3-dihydro-1H-isoindol-1-one], the pIC50 is 9.05 in assay [1] and 7.88 in assay [2].

Consider `COc1cccc2c1nc(N)n1nc([C@H]3C[C@H](c4ccc(C(C)(C)N)cn4)C3)nc21` [Ex-68, 2-((1r,3r)-3-(5-(2-aminopropan-2-yl)pyridin-2-yl)cyclobutyl)-7-methoxy-[1,2,4]triazolo[1,5-c]quinazolin-5-amine], for which the pIC50 in assay [1] was 8.70; in assay [2] it was 8.66.

`COc1cccc2c1nc(N)n1nc(C3CC3C)nc21` (stereo not drawn) [Ex-10, 7-methoxy-2-[2-methylcyclopropyl] [1,2,4]triazolo[1,5-c] quinazolin-5-amine]: the pIC50 in assay [1] was 8.59; in assay [2], 7.34.

Take `COc1cccc2c1nc(N)n1nc([C@H]3C[C@@H](c4ccccc4)C3)nc21` [Ex-135, 7-methoxy-2-((1s,3s)-3-phenylcyclobutyl)-[1,2,4]triazolo[1,5-c]quinazolin-5-amine]: the pIC50 in assay [1] is 8.14; in assay [2], 7.45.

As to `COc1cccc2c1nc(N)n1nc(C3CC3c3ccc(C(N)=O)c(F)c3)nc21` (stereo not drawn) [Ex-17, 4-[2-(5-amino-7-methoxy[1,2,4]triazolo [1,5-c]quinazolin-2-yl)cyclopropyl]-2-fluorobenzamide], the negative-log IC50 (pIC50) in assay [1] is 8.39; in assay [2], 7.39.

For `COc1cccc2c1nc(N)n1nc(C3CC3c3cccc(NC(C)=O)c3)nc21` (stereo not drawn) [Ex-5, N-{3-[2-(5-amino-7-methoxy[1,2,4]triazolo [1,5-c]quinazolin-2-yl)cyclopropyl]phenyl} acetamide], the figures for the pIC50 in assay [1] and in assay [2] were 9.30 and 7.81, respectively.

As to `CNC(=O)c1cccc(C2CC2c2nc3c4cccc(OC)c4nc(N)n3n2)c1` (stereo not drawn) [Ex-4, 3-[2-(5-amino-7-methoxy[1,2,4]triazolo [1,5-c]quinazolin-2-yl)cyclopropyl]-N-methylbenzamide], the pIC50 was 9.40 in assay [1] and 7.60 in assay [2].

In the case of `COc1cccc2c1nc(N)n1nc([C@H]3C[C@H](c4cccc(C(C)(C)O)c4)C3)nc21` [Ex-46, 2-{3-[trans-3-(5-amino-7-methoxy [1,2,4]triazolo [1,5-c]quinazolin-2-yl)cyclobutyl]phenyl} propan-2-ol], the results for the pIC50 in assay [1] and in assay [2] were 7.74 and 7.16, respectively.

On to `COc1cccc2c1nc(N)n1nc([C@H]3C[C@H](c4ccccc4)C3)nc21` [Ex-136, 7-methoxy-2-((1r,3r)-3-phenylcyclobutyl)-[1,2,4]triazolo[1,5-c]quinazolin-5-amine], for which the values for the pIC50 in assay [1] and in assay [2] were 8.66 and 6.94, respectively.

With `COc1cccc2c1nc(N)n1nc(C3CC3c3ccc4cnn(C)c4c3)nc21` (stereo not drawn) [Ex-21, 7-methoxy-2-[2-(1-methyl-1H-indazol-6-yl)cyclopropyl][1,2,4] triazolo[1,5-c] quinazolin-5-amine], the pIC50 is 8.16 in assay [1] and 6.98 in assay [2].

For `COc1cccc2c1nc(N)n1nc([C@H]3C[C@H](c4ncc(C(C)(C)N)cc4F)C3)nc21` [Ex-85, 2-{trans-3-[5-(2-aminopropan-2-yl)-3-fluoropyridin-2-yl]cyclobutyl}-7-methoxy[1,2,4]triazolo[1,5-c]quinazolin-5-amine], the results for the pIC50 in assay [1] and in assay [2] were 8.57 and 8.89, respectively.

Take `COc1cccc2c1nc(N)n1nc(C3CC3c3c[nH]nc3C(F)(F)F)nc21` (stereo not drawn) [Ex-25, 7-methoxy-2-{2-[3-(trifluoromethyl)-1H-pyrazol-4-yl]cyclopropyl} [1,2,4] triazolo[1,5-c] quinazolin-5-amine]: the pIC50 in assay [1] is 8.00; in assay [2] it was 7.02.

Turning to `COc1cccc2c1nc(N)n1nc(C3CC3c3ccc4c(c3)NCCO4)nc21` (stereo not drawn) [Ex-24, 2-[2-(3,4-dihydro-2H-1,4-benzoxazin-6-yl)cyclopropy1]-7-methoxy[1,2,4]triazolo [1,5-c]quinazolin-5-amine], the negative logarithm of the IC50 (pIC50) is 8.05 in assay [1] and 7.37 in assay [2].

Take `COc1cccc2c1nc(N)n1nc(C3CC3c3cccc4c3CNC4=O)nc21` (stereo not drawn) [Ex-20, 4-[2-(5-amino-7-methoxy[1,2,4]triazolo [1,5-c]quinazolin-2-yl)cyclopropyl]-2,3-dihydro-1H-isoindol-1-one]: the figures for the pIC50 in assay [1] and in assay [2] were 8.19 and 6.40, respectively.

In the case of `COc1cccc2c1nc(N)n1nc([C@H]3C[C@@](O)(c4ccc(C(C)(C)O)cn4)C3)nc21` [Ex-137, (1r,3r)-3-(5-amino-7-methoxy-[1,2,4]triazolo[1,5-c]quinazolin-2-yl)-1-(5-(2-hydroxypropan-2-yl)pyridin-2-yl)cyclobutan-1-ol], the negative-log IC50 (pIC50) in assay [1] is 8.40; in assay [2] it was 8.68.

Turning to `COc1cccc2c1nc(N)n1nc(C3CC3c3cn4ccnc4cc3C)nc21` (stereo not drawn) [Ex-7], the pIC50 in assay [1] was 8.89; in assay [2], 7.18.

As to `COc1cc(F)cc2c1nc(N)n1nc([C@H]3C[C@](O)(c4ccc(C(C)(C)O)nc4)C3)nc21` [Ex-139, (1s,3s)-3-(5-amino-9-fluoro-7-methoxy-[1,2,4]triazolo[1,5-c]quinazolin-2-yl)-1-(6-(2-hydroxypropan-2-yl)pyridin-3-yl)cyclobutan-1-ol], the pIC50 in assay [1] was 7.44; in assay [2], 5.60.

Take `CCn1cc(C2CC2c2nc3c4cccc(OC)c4nc(N)n3n2)cn1` (stereo not drawn) [Ex-14, 2-[2-(1-ethyl-1H-pyrazol-4-yl)cyclopropyl]-7-methoxy[1,2,4]triazolo [1,5-c]quinazolin-5-amine]: the figures for the negative logarithm of the IC50 (pIC50) in assay [1] and in assay [2] were 8.48 and 7.25, respectively.

Regarding `COc1cccc2c1nc(N)n1nc(C3CC3Cc3ccc(F)cc3)nc21` (stereo not drawn) [Ex-40, 2-(2-(4-fluorobenzyl)cyclopropyl)-7-methoxy-[1,2,4]triazolo[1,5-c]quinazolin-5-amine], the pIC50 was 8.85 in assay [1] and 8.12 in assay [2].

For `COc1cccc2c1nc(N)n1nc(C3CC3c3ccccc3[C@@H](C)O)nc21` (stereo partly drawn) [Ex-12, (1R)-1-{2-[2-(5-amino-7-methoxy[1,2,4]triazolo [1,5-c]quinazolin-2-yl)cyclopropyl]phenyl} ethan-1-ol], the values for the pIC50 in assay [1] and in assay [2] were 8.49 and 6.55, respectively.

Take `COc1cccc2c1nc(N)n1nc(C3(c4ccccc4)CC3)nc21` [Ex-37, 7-methoxy-2-(1-phenylcyclopropyl) [1,2,4]triazolo[1,5-c] quinazolin-5-amine]: the pIC50 in assay [1] was 7.75; in assay [2] it was 5.70.

For the compound `COc1cccc2c1nc(N)n1nc(C3CC3c3cnn(C)c3)nc21` (stereo not drawn) [Ex-27, 7-methoxy-2-[2-(1-methyl-1H-pyrazol-4-yl)cyclopropyl][1,2,4] triazolo[1,5-c] quinazolin-5-amine], the pIC50 in assay [1] was 7.01; in assay [2], 6.06.

In the case of `COc1cccc2c1nc(N)n1nc(C3CC3c3ccc4nncn4c3)nc21` (stereo not drawn) [Ex-13, 7-methoxy-2-[2-([1,2,4]triazolo[4,3-a]pyridin-6-yl)cyclopropyl][1,2,4] triazolo[1,5-c] quinazolin-5-amine], the pIC50 in assay [1] is 8.48; in assay [2], 6.82.

For `COc1cccc2c1nc(N)n1nc(C3CC3c3ccc4c(c3)CNC4=O)nc21` (stereo not drawn) [Ex-8, 5-[2-(5-amino-7-methoxy[1,2,4]triazolo [1,5-c]quinazolin-2-yl)cyclopropyl]-2,3-dihydro-1H-isoindol-1-one], the results for the pIC50 in assay [1] and in assay [2] were 8.82 and 7.51, respectively.

Turning to `COc1cccc2c1nc(N)n1nc(C3CC3Cc3ccc(F)cc3)nc21` (stereo not drawn) [Ex-41], the pIC50 in assay [1] is 8.15; in assay [2], 6.90.

On to `COc1cccc2c1nc(N)n1nc([C@@H]3C[C@H]3c3ccccc3)nc21` [Ex-34, 7-methoxy-2-[(1r,2r)-2-phenylcyclopropyl] [1,2,4]triazolo[1,5-c] quinazolin-5-amine], for which the pIC50 is 10.00 in assay [1] and 7.74 in assay [2].

Source of the values: patent US20250171447A1, “ADENOSINE RECEPTOR ANTAGONISTS, PHARMACEUTICAL COMPOSITIONS AND THEIR USE THEREOF” (Merck Sharp & Dohme LLC, priority 2022, published 2025).
